One experiment has as its system HDAC6. Conditions: cited from earlier work.
Experiment [1] has as its system HDAC6 with respect to all other isoforms, including HDAC10. On the set-up: method as in PMID 36528061. The settings on record: cited from earlier work.
Experiment [2] has as its system zebrafish HDAC6 CD2 (zHDAC6-CD2). Further details: method as in PMID 36528061. Conditions: cited from earlier work.
The target of experiment [3] is T1, Human HDAC6 (GST-HDAC6) (Homo sapiens, UniProt Q9UBN7).
T1 sequence (Q9UBN7 1-1215): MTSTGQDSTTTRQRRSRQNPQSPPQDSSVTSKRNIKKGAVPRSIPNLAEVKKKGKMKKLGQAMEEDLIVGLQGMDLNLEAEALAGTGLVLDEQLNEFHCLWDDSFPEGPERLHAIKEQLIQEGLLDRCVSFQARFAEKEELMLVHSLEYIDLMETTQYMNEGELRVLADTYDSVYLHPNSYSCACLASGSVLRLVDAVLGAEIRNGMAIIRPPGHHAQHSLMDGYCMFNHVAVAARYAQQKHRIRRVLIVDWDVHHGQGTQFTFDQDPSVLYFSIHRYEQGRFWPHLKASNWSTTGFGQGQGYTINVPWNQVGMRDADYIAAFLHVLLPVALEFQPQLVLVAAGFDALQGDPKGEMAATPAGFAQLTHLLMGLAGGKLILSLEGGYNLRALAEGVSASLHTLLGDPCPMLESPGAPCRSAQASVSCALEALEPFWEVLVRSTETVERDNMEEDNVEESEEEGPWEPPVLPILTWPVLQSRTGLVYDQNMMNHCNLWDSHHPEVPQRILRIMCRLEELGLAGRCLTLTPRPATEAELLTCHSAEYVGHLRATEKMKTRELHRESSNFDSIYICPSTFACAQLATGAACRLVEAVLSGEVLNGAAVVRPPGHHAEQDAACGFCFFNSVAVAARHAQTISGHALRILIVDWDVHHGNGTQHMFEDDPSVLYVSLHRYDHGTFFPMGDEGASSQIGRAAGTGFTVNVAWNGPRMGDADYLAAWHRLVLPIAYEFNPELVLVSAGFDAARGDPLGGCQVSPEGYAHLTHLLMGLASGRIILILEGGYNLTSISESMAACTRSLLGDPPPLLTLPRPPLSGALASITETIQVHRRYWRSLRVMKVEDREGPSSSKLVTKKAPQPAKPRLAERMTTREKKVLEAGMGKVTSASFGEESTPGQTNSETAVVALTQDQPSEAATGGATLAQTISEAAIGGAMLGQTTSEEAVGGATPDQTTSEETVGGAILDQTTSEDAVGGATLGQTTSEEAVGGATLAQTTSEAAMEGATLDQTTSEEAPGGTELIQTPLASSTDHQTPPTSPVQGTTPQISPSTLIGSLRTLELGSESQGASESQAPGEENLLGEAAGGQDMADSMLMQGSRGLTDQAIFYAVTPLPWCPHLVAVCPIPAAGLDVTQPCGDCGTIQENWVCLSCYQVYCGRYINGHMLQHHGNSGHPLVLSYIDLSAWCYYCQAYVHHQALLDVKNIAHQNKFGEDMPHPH
The experiment can be described thus: Jump-dilution assay, kinetics of relief of inhibition of HDAC6.
Text: (§1) Human HDAC6, as a chimeric form in which the full-length protein is preceded by glutathione S-transferase (GST), was purchased from BPS Bioscience.
From the slope of the lines and the intercepts (insets of Figure 1 E,G), one can calculate the apparent rate constants for formation of the inhibited complex and for its dissociation through Equation (4) (Table 1). Through Equation (5), the apparent dissociation constant of the EI complex could be calculated (Table 1). From jump-dilution assays of the type shown in Figure 1, right panels, the koff was independently calculated through Equation (2) (or from the linear part of the curves) in the presence of saturating substrate, to minimize the possibility that the inhibitor rebinds to the enzyme after dissociation (Table 1).
Panels (A,C,E,G): kinetics of onset of inhibition. […] Aliquots of reactions were stopped at different times with TSA and subsequently developed, as described in detailed methods in Supplementary information. […] The data were fitted to Equation (2) to determine the steady-state velocity values (vs), which were used to calculate IC50 and kobs (Table 1). The initial velocity was set to the value measured in the absence of the inhibitor. […] They were used to determine the mechanism of slow-binding inhibition, and estimates of kon, koff and Ki (Table 1). […]

In experiment [4] the target is T1, Human HDAC6 (GST-HDAC6). The experiment can be described thus: Kinetics of onset of inhibition of HDAC6, progress curves with Fluor de Lys Green substrate. Conditions: for slope factor (s): slope factor of the IC50 fit, Equation (1).
Text: as §1
The activity assay described here is based on the use of the commercially available Fluor de Lys Green substrate, which contains an acetylated lysine residue covalently bound through an amide bond to the amino group of a fluorophore, likely a rhodamine derivative. Deacetylation of the lysine residue makes the amide bond susceptible to trypsin cleavage with release of the fluorophore that is accompanied by fluorescence increase.
For activity assays in the absence of inhibitors, measured fluorescence values at different reaction times, after subtraction of the background fluorescence, were analyzed to determine the initial velocity of reactions from the initial linear part of the curve. […] If the onset and relief of inhibition were sufficiently fast, compared to the time of the assay, the steady-state velocity could be calculated from the linear part of the progress curve at long reaction times. […] Thus, we could calculate apparent values of kon (the second-order rate constant for formation of the enzyme–inhibitor complex) and koff (the first-order rate constant for dissociation of the enzyme–inhibitor complex) for a simple E + I ↔ EI equilibrium from Equation (4). From the observed rates of complex formation and dissociation, an apparent dissociation constant of the complex could be calculated (Equation (5); [31, 40]). kobs = kon^app [I] + koff (4) Ki^app = koff/kon^app (5)
The steady-state velocities were used to estimate the IC50 and cooperativity (if any) from the “slope factor” (s) by calculating the percentage residual activity as a function of inhibitor concentration, and fitting to Equation (1).
From jump-dilution assays of the type shown in Figure 1, right panels, the koff was independently calculated through Equation (2) (or from the linear part of the curves) in the presence of saturating substrate, to minimize the possibility that the inhibitor rebinds to the enzyme after dissociation (Table 1).
Aliquots of reactions were stopped at different times with TSA and subsequently developed, as described in detailed methods in Supplementary information. […] The data were fitted to Equation (2) to determine the steady-state velocity values (vs), which were used to calculate IC50 and kobs (Table 1). The initial velocity was set to the value measured in the absence of the inhibitor.
For the next experiment, the target named is T2, Human HDAC6 (Homo sapiens, UniProt Q9UBN7).
T2 sequence (Q9UBN7 1-1215): T1 sequence (Q9UBN7 1-1215)
The experiment can be described thus: Yonetani-Theorell analysis of the binding of ITF2357 and ITF3756 to HDAC6. Type of experiment: biochemical. Conditions: with respect to the Fluor de Lys substrate; parallel lines in Yonetani-Theorell plots.

The source of these data is paper PMC10452033, “The Importance of the “Time Factor” for the Evaluation of Inhibition Mechanisms: The Case of Selected HDAC6 Inhibitors” (Biology, 2023).

One may read the IC50 as the concentration that inhibits the measured activity by half. Broadly, the koff is the first-order rate constant of dissociation. Low values mean slow dissociation, high ones fast dissociation. As a reminder, the Ki is the dissociation constant of the complex between target and ligand, obtained from inhibition or displacement. For orientation: kon means the rate constant with which the complex forms.

Consider `FC(F)c1nnc(-c2ccc(Cn3cc(-c4ccc(NC5=NCCN5)cc4)nn3)cc2)o1` [Compound 1], for which the IC50 with HDAC6 is 7.7 nM. Besides, the “selectivity for HDAC6 with respect to all other isoforms” value in experiment [1] is listed as “greater than 10^4”. Also, in experiment [2], the “observed rate constant for the release from the enzyme in jump-dilution assays” value is on record as “(9.6 ± 1.1) × 10^−3 min^−1” and the “rate constant for formation of the acyl-hydrazide from Compound 1” value is reported as “(6.04 ± 0.22)×10^−3 min^−1”. The compound further gave a koff at Human HDAC6 (GST-HDAC6) [3] of 0.000108 s⁻¹. At Human HDAC6 (GST-HDAC6) [4], the Ki is 8.9 ± 0.23 nM, the koff was 8.33e-05 s⁻¹ and the “slope factor (s)” value was 0.96 ± 0.04. Also, the on-rate (kon) at Human HDAC6 (GST-HDAC6) [4] (read-out: kon^app) was 9330 M⁻¹ s⁻¹.

On to `O=C(NNC(=O)C(F)F)c1ccc(Cn2cc(-c3ccc(NC4=NCCN4)cc3)nn2)cc1` [Compound 1a], for which the half-inhibitory concentration (IC50) in the experiment on HDAC6 was 1580 nM.

As to `NNC(=O)c1ccc(Cn2cc(-c3ccc(NC4=NCCN4)cc3)nn2)cc1` [Compound 1b], the IC50 in the experiment with HDAC6 was 329 nM.

Take `CCN(CC)Cc1ccc2cc(COC(=O)Nc3ccc(C(=O)NO)cc3)ccc2c1` [ITF2357, reference compound]: the mechanism of inhibition result on Human HDAC6 was “competitive inhibitor”. Also, the “time after start of reaction at which steady-state velocity was reached” value at Human HDAC6 (GST-HDAC6) [4] (reaction started by addition of the enzyme) is on record as “approximately 15 min”. Also, at Human HDAC6 (GST-HDAC6) [4], the “slope factor (s)” value stood at 1.0 ± 0.06.

“[R-(E,E)]-7-[4-(Dimethylamino)phenyl]-N-hydroxy-4,6-dimethyl-7-oxo-2,4-heptadienamide [TSA, reference compound]”: the apparent koff at Human HDAC6 (GST-HDAC6) [3] (pre-incubated with 10 nM TSA for 90 min, 100-fold dilution, 25 µM Fluor-de-Lys Green) is 0.032 ± 0.008 min‐1. On Human HDAC6 (GST-HDAC6) [4] (progress curves and jump-dilution assays), the “kinetic behaviour of onset and relief of inhibition” value was “Slow binding”.
